29 compounds from EP0679645A1, “Pharmacologically active CNS pyridmidin compounds” (THE WELLCOME FOUNDATION LIMITED, priority 1990, dated 1991) can be followed below.

The test system of series [1] is veratrine-evoked release of glutamate. The series can be described thus: Inhibition of veratrine-evoked release of glutamate from rat brain slices. The conditions noted are these: P95 limits in brackets, read-out: IC₅₀(µM) Glutamate Release (P95 limits). In kind it is cell-based. On the procedure:
(§1) Compounds according to the invention were tested for their effect on veratrine-evoked release of glutamate from rat brain slices according to the protocol described in Epilepsia 27(5): 490-497, 1986. The protocol for testing for inhibition of DHFR activity was a modification of that set out in Biochemical Pharmacology Vol. 20 pp 561-574, 1971.
(§2) The results are given in Table 1, the IC₅₀ being the concentration of compound to cause 50% inhibition of (a) veratrine-evoked release of glutamate and (b) of DHFR enzyme activity.

For the next series, the target named is T1, Rat Liver DHFR (Rattus norvegicus, UniProt Q920D2).
T1 construct: from tissue; host or cells: rat liver
T1 sequence (Q920D2 1-187): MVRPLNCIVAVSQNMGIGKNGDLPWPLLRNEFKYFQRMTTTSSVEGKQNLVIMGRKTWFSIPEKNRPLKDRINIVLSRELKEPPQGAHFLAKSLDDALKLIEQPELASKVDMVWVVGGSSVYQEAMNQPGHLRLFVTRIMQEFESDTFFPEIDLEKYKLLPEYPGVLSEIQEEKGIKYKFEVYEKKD
The series can be described thus: Inhibition of rat liver DHFR enzyme activity. Format: biochemical. The conditions noted are these: P95 limits in brackets, read-out: IC₅₀(µM) Rat Liver DHFR (P95 limits). On the procedure:
as §1, §2

Another series in a line: Half-life in the rat. In kind it is in vivo. The conditions noted are these: statement in words.

Consider `Nc1nc(N)c(-c2cc(Cl)cc(Cl)c2)c(C(F)(F)F)n1` [Compound 1, 2,4-Diamino-5-(3,5-dichlorophenyl)-6-trifluoromethyl pyrimidine], for which the IC50 in series [1] was < 10 µM; at Rat Liver DHFR it was 4.59 µM.
As for `Cc1nc(N)nc(N)c1-c1c(Cl)ccc(Cl)c1Cl` [Compound 2, 2,4-Diamino-6-methyl-5-(2,3,6-trichlorophenyl)pyrimidine], the results for the IC50 (in series [1]; on Rat Liver DHFR) were < 10 µM and > 100 µM, respectively.
Turning to `Nc1ncc(-c2cc(Cl)c(N)c(Cl)c2Cl)c(N)n1` [Compound 3, 2,4-Diamino-5-(4-amino-2,3,5-trichlorophenyl)pyrimidine], the IC50 in series [1] is 2.5 µM; on Rat Liver DHFR it was > 100 µM.
As to `Cc1nc(N2CCN(C)CC2)nc(N)c1-c1cc(Cl)c(Cl)c(Cl)c1` [Compound 4, 4-Amino-2-(4-methyl-1-piperazinyl)-6-methyl-5-(3,4,5-trichlorophenyl)pyrimidine], the values for the IC50 (in series [1]; on Rat Liver DHFR) were < 10 µM and 100 µM, respectively.
Regarding `Cc1nc(N)nc(N)c1-c1cc(Cl)c(Cl)c(Cl)c1` [Compound 5, 2,4-Diamino-5-(3,4,5-trichlorophenyl)-6-methyl pyrimidine], the values for the IC50 (in series [1]; at Rat Liver DHFR) were < 10 µM and < 100 µM, respectively.
The matching figures for `CCN(CC)c1ncc(-c2cc(Cl)cc(Cl)c2Cl)c(N)n1` [Compound 6, 4-Amino-2-diethylamino-5-(2,3,5-trichlorophenyl)pyrimidine]: 10 µM and > 100 µM.
The matching figures for `CC(C)Nc1ncc(-c2cc(Cl)cc(Cl)c2Cl)c(N)n1` [Compound 7, 4-Amino-2-(2-iso-propylamino)-5-(2,3,5-trichlorophenyl)pyrimidine]: < 10 µM and > 100 µM.
Turning to `CN1CCN(c2ncc(-c3cc(Cl)cc(Cl)c3)c(N)n2)CC1` [Compound 8, 4-Amino-5-(3,5-dichlorophenyl)-2-(4-methyl-1-piperazinyl)pyrimidine], the IC50 in series [1] was 0.27 µM; at Rat Liver DHFR, > 100 µM. For the same compound, in the series “Half-life in the rat”, the “half-life in the rat” value was “long half-life”.
On to `Nc1ncc(-c2cc(Cl)c(I)c(Cl)c2Cl)c(N)n1` [Compound 9, 2,4-Diamino-5-(4-iodo-2,3,5-trichlorophenyl)pyrimidine], for which the IC50 in series [1] is < 10 µM; on Rat Liver DHFR it was > 100 µM.
The matching figures for `C[N+]1([O-])CCN(c2nc(N)c(-c3cc(Cl)cc(Cl)c3Cl)c(C(F)(F)F)n2)CC1` [Compound 10, 4-Amino-2-(4-methyl-4-oxide-1-piperazinyl)-5-(2,3,5-trichlorophenyl)-6-trifluoromethyl-pyrimidine]: > 10 µM and > 100 µM.
As for `COCc1nc(N2CCN(C)CC2)nc(N)c1-c1cc(Cl)cc(Cl)c1` [Compound 11, 4-Amino-5-(3,5-dichlorophenyl)-6-methoxymethyl-2-(4-methyl-1-piperazinyl)pyrimidine], the values for the IC50 (in series [1]; on Rat Liver DHFR) were < 10 µM and > 100 µM, respectively.
On to `CN(C)S(=O)(=O)c1c(Cl)cc(-c2cnc(N)nc2N)c(Cl)c1Cl` [Compound 12, 2,4-Diamino-5[4-(N',N'-dimethylsulphamoyl)-2,3,5-trichlorophenyl]pyrimidine], for which the values for the IC50 (in series [1]; on Rat Liver DHFR) were < 10 µM and 13.8 µM, respectively.
The matching figures for `CN1CCN(c2nc(N)c(-c3cc(Cl)cc(Cl)c3)c(C(F)(F)F)n2)CC1` [Compound 14, 4-Amino-5-(3,5-dichlorophenyl)-2-(4-methyl-1-piperazinyl)-6-trifluoromethyl pyrimidine]: 0.137 µM and > 100 µM.
The matching figures for `Nc1ncc(-c2cc(Cl)c(Cl)c(Cl)c2Cl)c(N)n1` [Compound 15, 2,4-Diamino-5-(2,3,4,5-tetrachlorophenyl)pyrimidine]: < 10 µM and > 100 µM.
Consider `C[C@@H]1CN(c2ncc(-c3cc(Cl)cc(Cl)c3Cl)c(N)n2)C[C@H](C)N1` [Compound 16, cis 4-Amino-2-(3,5-dimethyl-1-piperazinyl)-5-(2,3,5-trichlorophenyl)pyrimidine], for which the IC50 in series [1] was 10 µM; on Rat Liver DHFR it was > 100 µM.
On to `CCCN1CCN(c2ncc(-c3cc(Cl)cc(Cl)c3Cl)c(N)n2)CC1` [Compound 17, 4-Amino-2-(4-n-propyl-1-piperazinyl)-5-(2,3,5-trichlorophenyl)pyrimidine], for which the IC50 is 2.17 µM in series [1] and > 100 µM on Rat Liver DHFR.
The matching figures for `C[N+]1([O-])CCN(c2ncc(-c3cc(Cl)cc(Cl)c3Cl)c(N)n2)CC1` [Compound 18, 4-Amino-2-(4-methyl-4-oxide-1-piperazinyl)-5-(2,3,5-trichlorophenyl)pyrimidine]: > 10 µM and > 100 µM.
The matching figures for `Cc1nc(N)nc(N)c1-c1cc(Cl)cc(Cl)c1[N+](=O)[O-]` [Compound 19, 2,4-Diamino-5-(3,5-dichloro-2-nitrophenyl)-6-methyl-pyrimidine]: < 10 µM and 5.56 µM.
The matching figures for `CN1CCN(c2nc(N)ncc2-c2cccc(Cl)c2Cl)CC1` [Compound 20, 2-Amino-5-(2,3-dichlorophenyl)-4-(4-methyl-1-piperazinyl)pyrimidine]: 10 µM and > 100 µM.
Consider `Nc1ncc(-c2cccc(Cl)c2Cl)c(N2CCOCC2)n1` [Compound 21, 2-Amino-5-(2,3-dichlorophenyl)-4-(N-morpholino)pyrimidine], for which the figures for the IC50 (in series [1]; at Rat Liver DHFR) were 10 µM and > 100 µM, respectively.
Take `Nc1nc(N2CCN(Cc3ccccc3)CC2)ncc1-c1cc(Cl)cc(Cl)c1Cl` [Compound 22, 4-Amino-2-(4-benzyl-1-piperazinyl)-5-(2,3,5-trichlorophenyl)pyrimidine]: the IC50 is > 10 µM in series [1] and < 100 µM on Rat Liver DHFR.
For the compound `Nc1ncc(-c2cc(Cl)c(N)c(Cl)c2)c(N)n1` [Compound 25, 2,4-Diamino-5-(3,5-dichloro-4-aminophenyl)pyrimidine], the IC50 in series [1] is > 10 µM; on Rat Liver DHFR, 0.034 µM.
`Cc1nc(N)nc(N)c1-c1cc(Cl)c(N)c(Cl)c1` [Compound 26, 2,4-Diamino-5-(3,5-dichloro-4-aminophenyl)-6-methyl pyrimidine]: the results for the IC50 (in series [1]; at Rat Liver DHFR) were < 10 µM and 0.034 µM, respectively.
The matching figures for `Nc1nc(N)c(-c2cc(Cl)c(N)c(Cl)c2)c(C(F)(F)F)n1` [Compound 27, 2,4-Diamino-5-(3,5-dichloro-4-aminophenyl)-6-trifluoromethyl pyrimidine]: 10 µM and 1.54 µM.
Take `CCCCN1CCN(c2ncc(-c3cc(Cl)cc(Cl)c3Cl)c(N)n2)CC1` [Compound 28, 4-Amino-2-(4-n-butyl-1-piperazinyl)-5-(2,3,5-trichlorophenyl)pyrimidine]: the results for the IC50 (in series [1]; on Rat Liver DHFR) were < 10 µM and > 100 µM, respectively.
With `CCN1CCN(c2ncc(-c3cc(Cl)cc(Cl)c3Cl)c(N)n2)CC1` [Compound 29, 4-Amino-2-(4-ethyl-1-piperazinyl)-5-(2,3,5-trichlorophenyl)pyrimidine], the IC50 in series [1] is 2.56 µM; on Rat Liver DHFR it was > 100 µM.
For the compound `CC(C)N1CCN(c2ncc(-c3cc(Cl)cc(Cl)c3Cl)c(N)n2)CC1` [Compound 30, 4-Amino-2-(4-isopropyl-1-piperazinyl)-5-(2,3,5-trichlorophenyl)pyrimidine], the IC50 in series [1] was < 10 µM; on Rat Liver DHFR it was 100 µM.
In the case of `Nc1nc(N2CCN(C3CC3)CC2)ncc1-c1cc(Cl)cc(Cl)c1Cl` [Compound 31, 4-Amino-2-(4-cyclopropyl-1-piperazinyl)-5-(2,3,5-trichlorophenyl)pyrimidine], the IC50 in series [1] was 10 µM; on Rat Liver DHFR, > 100 µM.
In the case of `CCN1CCN(c2nc(N)c(-c3cc(Cl)cc(Cl)c3)c(C(F)(F)F)n2)CC1` [Compound 32, 4-Amino-2-(4-ethyl-1-piperazinyl)-5-(3,5-dichlorophenyl)-6-trifluoromethyl pyrimidine], the figures for the IC50 (in series [1]; on Rat Liver DHFR) were 2.43 µM and > 100 µM, respectively.
